Legend:
[1] = target: T1, Abl (Homo sapiens, UniProt P00519); test: Abl inhibition test; type: biochemical; settings: Abltide substrate, ATP 6 μM, [γ-33P]ATP, 40 minutes room temperature; read-out: Abl inhibitory activity IC50
T1 construct: purchased Wako Pure Chemical Industries
Method: 5 ng/5 μl/well of an Abl (Wako Pure Chemical Industries) solution, 30 μl of an Abltide substrate peptide solution (Wako Pure Chemical Industries; final concentration 5 μM) and 5 μl of a test substance solution were added to a 96-well plate (Corning), followed by incubation at room temperature for 15 minutes. Then, 10 μl of an ATP mixture (ATP: Oriental Yeast, final concentration 6 μM, [γ-33P]ATP: GE Healthcare Biosciences, 0.06 μCi/well, MgAcetate: Cosmo Bio, final concentration 10 mM) was added, followed by incubation at room temperature for 40 minutes. The Abl solution was prepared using a kinase buffer (20 mM MOPS pH 7.0, 1 mM EDTA, 0.1% β-mercaptoethanol, 0.01% Brij-35, 5% glycerol, 1 mg/ml BSA). The substrate peptide solution and the ATP mixture were prepared using 8 mM MOPS pH 7.0 and 0.2 mM
EDTA. The test substance solution was made by dissolving the test substance in DMSO at each concentration. The final concentration of DMSO was 1%. The reaction was terminated by adding 100 μl of a 100 mM phosphoric acid solution as a reaction terminator. Then, the total reaction solution was transferred to a 96-well MultiScreen plate (Millipore) and washed with 200 μl of 100 mM phosphoric acid three times. After drying, 20 μl of MicroScint-O (PerkinElmer) was added and the radioactivity was measured by TopCount (PerkinElmer). After subtracting the radioactivity in the well to which the Abltide substrate peptide was not added from each radioactivity, the ratio of the radioactivity when the test substance was added to the radioactivity when the test substance was not added was determined. The IC50 value was calculated from the inhibition rate at each concentration and used as an index of inhibitory activity.

[2] = target: T2, Syk (Homo sapiens, UniProt P43405); test: Syk inhibition test; type: biochemical; settings: poly(L-glu-L-tyr) substrate, ATP 5 μM, [γ-33P]ATP, 30 minutes room temperature; read-out: Syk inhibitory activity IC50
T2 construct: purchased Wako Pure Chemical Industries
Method: 10 ng/10 μl/well of a Syk (Wako Pure Chemical Industries) solution, 15 μl of a poly(L-glu-L-tyr) substrate peptide solution (Sigma, final concentration 5 μM), 20 μl of an ATP mixture (ATP: Oriental Yeast, final concentration 5 μM, [γ-33P]ATP: GE Healthcare Biosciences, 0.1 μCi/well) and 5 μl of a test substance solution were added to a 96-well Corning reaction plate, followed by incubation at room temperature for 30 minutes. An assay buffer containing 50 mM Tris pH 7.5, 10 mM MgCl2, 0.1 mM Na3VO4, 1 mM DTT, 0.01% CHAPS and 100 μg/ml BSA was used. The test substance solution was made by dissolving the test substance in DMSO at each concentration. The final concentration of DMSO was 1%. The reaction was terminated by adding 100 μl of a 120 mM phosphoric acid solution as a reaction terminator. Then, the total reaction solution was transferred to MultiScreen (Millipore) and washed with 200 μl of 100 mM phosphoric acid four times.
After drying, 20 μl of MicroScint-O (PerkinElmer) was added and the radioactivity was measured by TopCount (PerkinElmer). The ratio of the radioactivity when the test substance was added to the radioactivity when the test substance was not added was determined. The IC50 value was calculated from the inhibition rate at each concentration and used as an index of inhibitory activity.

[3] = test system: Human mast cell line LAD cells; test: Degranulation test using human mast cell line LAD cells; type: cell-based; settings: IgE-sensitized LAD cells, anti-human IgE stimulation, β-hexosaminidase release, read-out: degranulation inhibitory activity IC50
Method: Human mast cell line LAD cells were sensitized with human IgE (Cosmo Bio; final concentration 1 μg/ml) overnight. The cells were harvested, and then washed with PBS (Invitrogen) and washed again with Tyrode's buffer solution (Sigma) containing 0.1% BSA (Sigma). The cells were seeded into a 96-well plate at 10^5 cells/well and then the compound (0.1% final concentration DMSO solution) was added, followed by incubation at 37° C. for 15 minutes. Rabbit anti-human IgE (Dako Japan; final concentration 10 μg/ml) or control Ig (Dako Japan; final concentration 10 μg/ml) was added, followed by incubation at 37° C. for 30 minutes. The supernatant was recovered and p-nitrophenyl-2-acetamido-2-deoxy-β-D-glucopyranoside (Sigma; final concentration 4 mM), a substrate of β-hexosaminidase which is an index of degranulation, was added, followed by incubation at 37° C. for 45 minutes. Glycine (Wako; final concentration 0.2 M, pH 10.4) was added and the reaction was terminated. Then, the absorbance at 405 nm was measured.
The inhibition rate (%) was calculated as (anti-IgE antibody degranulation rate—compound-added group degranulation rate)/(anti-IgE antibody degranulation rate—control antibody degranulation rate)×100. The IC50 value was calculated from the inhibition rate at each concentration and used as an index of inhibitory activity.

T1 sequence (P00519 whole entry, species assumed): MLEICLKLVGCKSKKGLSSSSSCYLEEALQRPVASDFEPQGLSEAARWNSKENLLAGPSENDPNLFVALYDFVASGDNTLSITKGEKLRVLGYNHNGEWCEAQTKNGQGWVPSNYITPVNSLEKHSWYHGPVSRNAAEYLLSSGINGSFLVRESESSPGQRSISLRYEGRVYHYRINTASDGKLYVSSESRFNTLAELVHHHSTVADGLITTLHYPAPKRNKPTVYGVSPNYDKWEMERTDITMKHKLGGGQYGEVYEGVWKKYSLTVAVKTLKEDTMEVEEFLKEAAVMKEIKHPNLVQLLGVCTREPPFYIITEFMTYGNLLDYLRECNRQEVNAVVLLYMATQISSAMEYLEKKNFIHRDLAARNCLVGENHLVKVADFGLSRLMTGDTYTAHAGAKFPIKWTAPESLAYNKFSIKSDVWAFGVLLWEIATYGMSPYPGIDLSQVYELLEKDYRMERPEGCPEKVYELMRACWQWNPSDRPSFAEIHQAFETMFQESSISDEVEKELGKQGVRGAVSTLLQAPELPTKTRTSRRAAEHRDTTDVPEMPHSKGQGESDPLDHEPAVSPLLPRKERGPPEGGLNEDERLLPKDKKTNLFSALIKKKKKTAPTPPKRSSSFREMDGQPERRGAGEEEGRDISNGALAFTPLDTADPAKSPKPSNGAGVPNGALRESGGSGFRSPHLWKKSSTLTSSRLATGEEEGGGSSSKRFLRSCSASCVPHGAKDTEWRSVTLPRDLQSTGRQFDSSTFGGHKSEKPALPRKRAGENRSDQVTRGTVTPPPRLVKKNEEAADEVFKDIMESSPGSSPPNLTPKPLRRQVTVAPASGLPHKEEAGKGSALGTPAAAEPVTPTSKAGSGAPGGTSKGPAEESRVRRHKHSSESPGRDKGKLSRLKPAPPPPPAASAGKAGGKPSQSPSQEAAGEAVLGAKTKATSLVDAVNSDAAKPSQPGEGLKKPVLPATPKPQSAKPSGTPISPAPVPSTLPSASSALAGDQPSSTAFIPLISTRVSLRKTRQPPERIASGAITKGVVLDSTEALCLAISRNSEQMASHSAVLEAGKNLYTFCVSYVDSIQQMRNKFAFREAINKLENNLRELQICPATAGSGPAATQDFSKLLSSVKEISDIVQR

| SMILES | IC50 [1] | IC50 [2] | IC50 [3] |
| --- | --- | --- | --- |
| CS(=O)(=O)c1n[nH]c2nc(Nc3ccc(-c4ccc(C(=O)O)cc4)cc3)nc(NC3CC3)c12 [Compound 227] | ≤ 50 nM |  |  |
| CS(=O)(=O)c1n[nH]c2nc(Nc3ccc(N4CCOCC4)cc3)nc(NCCCC(N)=O)c12 [Compound 60] | ≤ 50 nM |  |  |
| N[C@H]1CC[C@@H](Nc2nc(Nc3ccc(N4CCOCC4)cc3)nc3[nH]ncc23)CC1 [Compound 216, N^4-(cis-4-Aminocyclohexyl)-N^6-(4-morpholinophenyl)-1H-pyrazolo[3,4-d]pyrimidine-4,6-diamine] | ≤ 10 nM |  |  |
| CS(=O)(=O)c1n[nH]c2nc(Nc3ccc(N4CCNCC4)cc3)nc(NC3CC3)c12 [Compound 74] | ≤ 10 nM | ≤ 200 nM | ≤ 100 nM |
| CS(=O)(=O)c1n[nH]c2nc(Nc3ccc(N4CCCC(O)C4)cc3)nc(NC3CC3)c12 (stereo not shown) [Compound 78] | ≤ 10 nM |  |  |
| CS(=O)(=O)c1n[nH]c2nc(Nc3ccc(N4CCN(S(C)(=O)=O)CC4)cc3)nc(NC3CC3)c12 [Compound 146] | ≤ 10 nM | ≤ 200 nM |  |
| CS(=O)(=O)c1n[nH]c2nc(Nc3ccc(N4CCCC(C(N)=O)C4)cc3)nc(NC3CC3)c12 (stereo not shown) [Compound 132] | ≤ 10 nM |  |  |
| CS(=O)(=O)c1n[nH]c2nc(Nc3ccc(N4CCOCC4)cc3)nc(NC3CCCC3)c12 [Compound 103] | ≤ 50 nM |  |  |
| Cc1cc(Nc2nc(NC3CC3)c3c(S(C)(=O)=O)n[nH]c3n2)ccc1N1CCOCC1 [Compound 38] | ≤ 50 nM |  |  |
| CN(C)C(=O)C1CCN(c2ccc(Nc3nc(NC4CC4)c4c(S(C)(=O)=O)n[nH]c4n3)cc2)CC1 [Compound 128] | ≤ 50 nM | ≤ 200 nM | ≤ 100 nM |
| CC1CN(C(=O)c2ccc(Nc3nc(NC4CC4)c4c(S(C)(=O)=O)n[nH]c4n3)cc2)CC(C)O1 (stereo not shown) [Compound 240] | ≤ 50 nM |  |  |
| CSc1n[nH]c2nc(Nc3ccc(N4CCOCC4)cc3)nc(NCCCCN)c12 [Compound 102] | ≤ 50 nM | ≤ 200 nM | ≤ 100 nM |
| CS(=O)(=O)c1n[nH]c2nc(Nc3ccc(N4CCOCC4)cc3)nc(Nc3ccccc3C(N)=O)c12 [Compound 188] | ≤ 50 nM |  |  |
| CSc1n[nH]c2nc(Nc3ccc(N4CCOCC4)cc3)nc(Nc3ccc4cn[nH]c4c3)c12 [Compound 206] | ≤ 50 nM |  |  |
| CSc1n[nH]c2nc(Nc3ccc(N4CCOCC4)cc3)nc(NC3CC3)c12 [Compound 13, N^4-Cyclopropyl-3-(methylsulfanyl)-N^6-(4-morpholin-4-ylphenyl)-1H-pyrazolo[3,4-d]pyrimidine-4,6-diamine] |  |  | ≤ 100 nM |
| CS(=O)(=O)c1n[nH]c2nc(Nc3ccc(N4CCC(=O)CC4)cc3)nc(NC3CC3)c12 [Compound 88] |  |  | ≤ 100 nM |
| CSc1n[nH]c2nc(Nc3ccc(N4CCOCC4)cc3)nc(NCCCCCN)c12 [Compound 110] | ≤ 50 nM |  |  |
| CC(C)(C)Nc1nc(Nc2ccc(N3CCOCC3)cc2)nc2[nH]nc(S(C)(=O)=O)c12 [Compound 55] | ≤ 10 nM |  |  |
| CSc1n[nH]c2nc(Nc3ccc(N4CCOCC4)cc3)nc(Nc3ccc4nc[nH]c4c3)c12 [Compound 192] | ≤ 50 nM |  |  |
| CC(C)N1CCN(c2ccc(Nc3nc(NC4CC4)c4c(S(C)(=O)=O)n[nH]c4n3)cc2)CC1 [Compound 138] |  | ≤ 200 nM | ≤ 100 nM |

| SMILES | IC50 [1] | IC50 [2] | IC50 [3] |
| --- | --- | --- | --- |
| CS(=O)(=O)c1n[nH]c2nc(Nc3ccc(N4CCC(CO)CC4)cc3)nc(NC3CC3)c12 [Compound 126] | ≤ 10 nM |  |  |
| CSc1n[nH]c2nc(Nc3ccc(N4CCOCC4)cc3)nc(NCCc3c[nH]cn3)c12 [Compound 200] | ≤ 10 nM |  |  |
| CS(=O)(=O)c1n[nH]c2nc(Nc3ccc(N4CCS(=O)(=O)CC4)cc3)nc(NC3CC3)c12 [Compound 134] | ≤ 10 nM | ≤ 200 nM | ≤ 100 nM |
| CNS(=O)(=O)c1ccc(Nc2nc(NC3CC3)c3c(S(C)(=O)=O)n[nH]c3n2)cc1 [Compound 152] | ≤ 10 nM |  |  |
| CC(C)Sc1n[nH]c2nc(Nc3ccc(N4CCOCC4)cc3)nc(N[C@H]3CC[C@@H](N)CC3)c12 [Compound 119] | ≤ 10 nM |  |  |
| C[S+]([O-])c1n[nH]c2nc(Nc3ccc(N4CCOCC4)cc3)nc(NC3CC3)c12 (stereo not shown) [Compound 4, N^4-Cyclopropyl-3-(methylsulfinyl)-N^6-(4-morpholin-4-ylphenyl)-1H-pyrazolo[3,4-d]pyrimidine-4,6-diamine] |  |  | ≤ 100 nM |
| CSc1n[nH]c2nc(Nc3ccc(N4CCOCC4)cc3)nc(Nc3ccc4[nH]c(O)nc4c3)c12 [Compound 208] | ≤ 50 nM |  |  |
| CS(=O)(=O)c1n[nH]c2nc(Nc3ccc(N4CCCC(CO)C4)cc3)nc(NC3CC3)c12 (stereo not shown) [Compound 130] | ≤ 10 nM | ≤ 200 nM | ≤ 100 nM |
| CNCCCCNc1nc(Nc2ccc(N3CCOCC3)cc2)nc2[nH]nc(SC)c12 [Compound 116] | ≤ 50 nM |  |  |
| CCSc1n[nH]c2nc(Nc3ccc(N4CCOCC4)cc3)nc(NC3CC3)c12 [Compound 108] | ≤ 50 nM |  |  |
| CCN1CCN(c2ccc(Nc3nc(NC4CC4)c4c(S(C)(=O)=O)n[nH]c4n3)cc2)CC1 [Compound 135] |  | ≤ 200 nM | ≤ 100 nM |
| CN1CCN(c2ccc(Nc3nc(NC4CC4)c4c(S(C)(=O)=O)n[nH]c4n3)cc2)CC1 [Compound 131, N^4-Cyclopropyl-N^6-[4-(4-methylpiperazin-1-yl)phenyl]-3-(methylsulfonyl)-1H-pyrazolo[3,4-d]pyrimidine-4,6-diamine] | ≤ 10 nM | ≤ 200 nM | ≤ 100 nM |
| CS(=O)(=O)c1n[nH]c2nc(Nc3ccc(N4CCCC(C(=O)N5CCOCC5)C4)cc3)nc(NC3CC3)c12 (stereo not shown) [Compound 143] | ≤ 10 nM | ≤ 200 nM | ≤ 100 nM |
| CCSc1n[nH]c2nc(Nc3ccc(N4CCOCC4)cc3)nc(NCCCCN)c12 [Compound 114] | ≤ 50 nM | ≤ 200 nM |  |
| CS(=O)(=O)c1n[nH]c2nc(Nc3ccc(N4CCOCC4)cc3)nc(NCCCCN)c12 [Compound 107] | ≤ 50 nM | ≤ 200 nM | ≤ 100 nM |
| CS(=O)(=O)c1n[nH]c2nc(Nc3ccc4[nH]cnc4c3)nc(NC3CC3)c12 [Compound 21] | ≤ 50 nM |  |  |
| CNC(=O)COc1cccc(Nc2nc(NC3CC3)c3c(S(C)(=O)=O)n[nH]c3n2)c1 [Compound 150] | ≤ 50 nM |  |  |
| CS(=O)(=O)c1n[nH]c2nc(Nc3ccc(N4CCOCC4)cc3)nc(N[C@H]3CC[C@@H](N)CC3)c12 [Compound 117, N^4-(cis-4-Aminocyclohexyl)-3-(methylsulfonyl)-N^6-(4-morpholin-4-ylphenyl)-1H-pyrazolo[3,4-d]pyrimidine-4,6-diamine] | ≤ 10 nM |  |  |
| N[C@H]1CC[C@@H](Oc2nc(Nc3ccc(N4CCOCC4)cc3)nc3[nH]ncc23)CC1 [Compound 217, cis-4-(4-Aminocyclohexyloxy)-N-(4-morpholinophenyl)-1H-pyrazolo[3,4-d]pyrimidin-6-amine] | ≤ 10 nM |  |  |
| CCSc1n[nH]c2nc(Nc3ccc(N4CCOCC4)cc3)nc(N[C@H]3CC[C@H](N)CC3)c12 [Compound 115] | ≤ 10 nM | ≤ 200 nM |  |
